Laboratory results taken from patent US20080090805A1, “CB-1 MODULATING COMPOUNDS AND THEIR USE” (ACADIA PHARMACEUTICALS INC., priority 2005, published 2008).
Like-named read-outs stand apart in the source and are kept apart here.

Experiments:
native CB1 receptors = native CB1 receptors (Rattus norvegicus, UniProt P20272); assay: CB1 receptor rat binding assay ([3H]SR141716A, rat brain membranes); conditions: rat brain membranes, [3H]SR141716A; for Ki: read-out: Binding rat pKi (converted)
CB1 (mutant) = CB1 (mutant) (Homo sapiens, UniProt P21554); assay: R-SAT functional receptor assay, CB1 (mutant, truncated after amino acid 417); assay type: cell-based; conditions: R-SAT CB1; for Emax: read-out: % Inhibition
[1] = Appendix A, receptor form (mutant or wild-type) not stated, read-out: pIC50 (converted)
[2] = Appendix A, receptor form not stated, relative to SR141716 (100%)
[3] = pIC50, Appendix A, receptor form (mutant or wild-type) not stated

Sequence of native CB1 receptors (P20272 whole entry, the tested form may be a part): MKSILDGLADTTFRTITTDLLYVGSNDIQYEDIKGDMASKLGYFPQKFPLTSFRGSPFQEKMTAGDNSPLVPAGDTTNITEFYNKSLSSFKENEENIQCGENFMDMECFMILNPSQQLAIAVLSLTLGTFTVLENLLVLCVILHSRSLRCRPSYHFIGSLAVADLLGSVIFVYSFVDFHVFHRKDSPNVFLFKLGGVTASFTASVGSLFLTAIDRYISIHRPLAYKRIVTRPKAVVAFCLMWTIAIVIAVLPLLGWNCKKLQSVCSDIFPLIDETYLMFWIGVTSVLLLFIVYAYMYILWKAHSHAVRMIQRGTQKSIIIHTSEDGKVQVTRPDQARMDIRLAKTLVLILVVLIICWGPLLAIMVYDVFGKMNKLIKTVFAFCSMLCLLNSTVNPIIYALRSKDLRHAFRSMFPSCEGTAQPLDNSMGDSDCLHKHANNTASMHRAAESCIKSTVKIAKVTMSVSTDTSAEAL
Sequence of CB1 (mutant) (P21554 1-417, change not shown): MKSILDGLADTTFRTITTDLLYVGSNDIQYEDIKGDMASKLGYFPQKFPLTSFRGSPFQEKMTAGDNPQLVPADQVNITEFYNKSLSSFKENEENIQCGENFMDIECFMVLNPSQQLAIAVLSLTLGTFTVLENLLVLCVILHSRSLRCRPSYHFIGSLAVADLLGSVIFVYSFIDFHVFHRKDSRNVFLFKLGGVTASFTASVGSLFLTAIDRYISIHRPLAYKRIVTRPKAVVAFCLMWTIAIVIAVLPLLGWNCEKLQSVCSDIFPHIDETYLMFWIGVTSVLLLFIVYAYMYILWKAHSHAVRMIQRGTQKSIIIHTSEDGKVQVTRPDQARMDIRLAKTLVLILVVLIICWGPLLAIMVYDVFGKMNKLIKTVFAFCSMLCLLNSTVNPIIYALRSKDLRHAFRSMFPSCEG

Row | Compound | Ki (native CB1 receptors) [nM] | Binding rat Inh % (native CB1 receptors) [%] | IC50 (CB1 (mutant); [1]) [nM] | Emax (CB1 (mutant); [2]) [%] | also measured
1 | O=C(NCCc1cccc(Cl)c1)c1ccc2c(c1)N=C(c1ccccc1F)c1ccccc1S2 [drawing 1459] | 50.1 |  |  |  | 
2 | CCCC1=Nc2cc(C(=O)NCCc3ccc(OC)cc3OC)ccc2Sc2ccccc21 [drawing 1536] | 79.4 |  |  |  | 
3 | O=C(NCCc1cccc(Cl)c1)c1ccc2c(c1)N=C(c1cccc(Cl)c1)c1ccccc1S2 [drawing 1331] | 25.1 |  |  |  | 
4 | C[C@@H]1CCC[C@H](C)N1NC(=O)c1ccc2c(c1)N=C(c1cccc(F)c1)c1ccccc1S2 [drawing 1261] | 20 | 91 |  |  | 
5 | Cc1ccsc1C1=Nc2cc(C(=O)NN3CCCCCC3)ccc2Sc2ccccc21 [drawing 1507] | 10 | 76 |  |  | 
6 | CC(C)CNC(=O)c1ccc2c(c1)N=C(c1ccc(Cl)cc1)c1ccccc1S2 [drawing 1314] | 3.16 | 92 |  |  | 
7 | O=C(NCc1ccco1)c1ccc2c(c1)N=C(c1ccc(Cl)s1)c1ccccc1S2 [drawing 1383] | 5.01 | 112 |  |  | 
8 | O=C(NN1CCCCC1)c1ccc2c(c1)N=C(c1cccc(Br)c1)c1ccccc1S2 [drawing 1487] | 10 |  |  |  | 
9 | Cc1cccc(C2=Nc3cc(C(=O)NCc4ccc(C)o4)ccc3Sc3ccccc32)n1 [drawing 1353] | 3.98 | 108 |  |  | 
10 | COc1ccc(C2=Nc3cc(C(=O)NCc4cccnc4)ccc3Sc3ccccc32)cc1 [drawing 1438] | 50.1 | 60 |  |  | 
11 | Cc1csc(CNC(=O)c2ccc3c(c2)N=C(c2ccc(Cl)s2)c2ccccc2S3)c1 [drawing 1232] | 0.794 | 90 |  |  | 
12 | O=C(NC1CCCCC1)c1ccc2c(c1)N=C(c1ccccc1F)c1ccccc1S2 [drawing 1539] | 12.6 | 83 |  |  | 
13 | O=C(NCc1cccc(Cl)c1)c1ccc2c(c1)N=C(c1ccc(F)cc1)c1ccccc1S2(=O)=O [drawing 1408] | 6.31 |  |  |  | 
14 | CCOC(=O)c1ccc(C2=Nc3cc(C(=O)NCc4cccnc4)ccc3Sc3ccccc32)cc1 [drawing 1350] | 31.6 | 90 |  |  | 
15 | O=C(NCc1ccco1)c1ccc2c(c1)N=C(c1ccc(Cl)c(Cl)c1)c1ccccc1S2 [drawing 1402] | 6.31 | 84 |  |  | 
16 | O=C(NCCCC(F)(F)F)c1ccc2c(c1)N=C(c1ccc(Cl)cc1)c1ccccc1S2 [drawing 1226] | 0.631 | 89 |  |  | 
17 | O=C(NCc1cccnc1)c1ccc2c(c1)N=C(c1ccc(Cl)cc1)c1ccccc1S2 [drawing 1260] | 15.8 | 76 |  |  | 
18 | COc1ccc(C2=Nc3cc(C(=O)NCC(C)C)ccc3Sc3ccccc32)cc1 [drawing 1508] | 10 | 79 |  |  | 
19 | O=C(NCc1ccccc1Br)c1ccc2c(c1)N=C(c1ccccc1)c1ccccc1S2 [drawing 1483] | 63.1 |  |  |  | 
20 | O=C(NCc1ccccn1)c1ccc2c(c1)N=C(c1cccc(Br)c1)c1ccccc1S2 [drawing 1419] | 39.8 | 79 |  |  | 
21 | CCCNC(=O)c1ccc2c(c1)N=C(c1sccc1C)c1ccccc1S2 [drawing 1387] | 31.6 | 64 |  |  | 
22 | COc1ccc(C2=Nc3cc(C(=O)NCCC(C)C)ccc3Sc3ccccc32)cc1 [drawing 1351] | 3.98 | 81 |  |  | 

Row | Compound | Ki (native CB1 receptors) [nM] | Binding rat Inh % (native CB1 receptors) [%] | IC50 (CB1 (mutant); [1]) [nM] | Emax (CB1 (mutant); [2]) [%] | also measured
23 | C[C@@H]1CCC[C@H](C)N1NC(=O)c1ccc2c(c1)N=C(c1cccc(Cl)c1)c1ccccc1S2 [drawing 1526] | 10 | 73 |  |  | 
24 | O=C(NN1CCCCC1)c1ccc2c(c1)N=C(c1ccc(Br)cc1)c1ccccc1S2 [drawing 1423] | 6.31 | 89 |  |  | 
25 | O=C(NCc1ccc(F)cc1)c1ccc2c(c1)N=C(N1CCCCC1)c1ccccc1S2 [drawing 1212] | 12.6 |  |  |  | 
26 | Cc1ccc(CNC(=O)c2ccc3c(c2)N=C(c2ccc(Cl)cc2F)c2ccccc2S3)o1 [drawing 1441] | 7.94 | 90 |  |  | 
27 | Clc1ccc(C2=Nc3cc(-c4ncc[nH]4)ccc3Sc3ccccc32)cc1 [drawing 1485] | 63.1 | 81 |  |  | 
28 | CCCCNC(=O)c1ccc2c(c1)N=C(c1ccc(Cl)cc1)c1cc(F)ccc1S2 [drawing 1500] | 10 | 90 |  |  | 
29 | Cc1ccc(CNC(=O)c2ccc3c(c2)N=C(c2sccc2C)c2ccccc2S3)o1 [drawing 1400] | 6.31 | 102 |  |  | 
30 | CCCCNC(=O)c1ccc2c(c1)N=C(c1cccc(Cl)c1)c1cc(Cl)ccc1S2 [drawing 1235] | 15.8 | 89 |  |  | 
31 | O=C(NCCCC(F)(F)F)c1ccc2c(c1)N=C(c1ccccn1)c1ccccc1S2 [drawing 1473] | 7.94 | 92 |  |  | 
32 | O=C(NN1CCCCC1)c1ccc2c(c1)N=C(c1ccc(Cl)cc1)c1ccccc1O2 | 79.4 |  |  |  | 
33 | CCCCNC(=O)c1ccc2c(c1)N=C(c1ccc(Cl)cn1)c1cc(F)ccc1S2 [drawing 1230] | 15.8 | 83 |  |  | 
34 | O=C(NCCc1cccnc1)c1ccc2c(c1)N=C(c1ccccn1)c1ccccc1S2 |  |  | 316 | 77 | 
35 | O=C(NN1CCOCC1)c1ccc2c(c1)N=C(c1cccc(Cl)c1)c1ccccc1S2 |  |  | 79.4 | 80 | 
36 | CC(CNC(=O)c1ccc2c(c1)N=C(c1ccc(Cl)cc1)c1ccccc1S2)c1ccccc1 (stereo not shown) [drawing 933] |  |  | 20 | 106 | 
37 | CC(C)CNC(=O)c1ccc2c(c1)N=C(c1ccc(F)cc1)c1ccccc1S2 [drawing 677] |  |  | 6.31 | 107 | 
38 | CCOCCNC(=O)c1ccc2c(c1)N=C(c1ccc(OC)cc1)c1ccccc1S2 |  |  | 79.4 | 90 | 
39 | Cc1cccc(C2=Nc3cc(C(=O)NCc4ccc(C)o4)ccc3Sc3ccccc32)n1 [drawing 805] |  |  | 10 | 96 | 
40 | CCCCNC(=O)c1ccc2c(c1)N=C(c1ccc(Cl)cc1)c1sccc1S2 [drawing 657] |  |  | 6.31 | 122 | 
41 | O=C(NCc1cccnc1)c1ccc2c(c1)N=C(c1ccccn1)c1ccccc1S2 |  |  | 316 | 67 | 
42 | CCCC1=Nc2cc(C(=O)NCCc3ccccc3)ccc2Sc2ccccc21 |  |  | 794 | 98 | 
43 | CCN(CCNC(=O)c1ccc2c(c1)N=C(c1ccccc1F)c1ccccc1S2)c1ccccc1 [drawing 1117] |  |  | 39.8 | 100 | 
44 | O=C(NCc1ccccc1)c1ccc2c(c1)N=C(c1ccc(F)cc1)c1ccccc1S2 [drawing 759] |  |  | 10 | 96 | 

Row | Compound | Ki (native CB1 receptors) [nM] | Binding rat Inh % (native CB1 receptors) [%] | IC50 (CB1 (mutant); [1]) [nM] | Emax (CB1 (mutant); [2]) [%] | also measured
45 | CC(C)CNC(=O)c1ccc2c(c1)N=C(c1ccc(Br)cc1)c1ccccc1S2 [drawing 781] |  |  |  | 80 | IC50 (CB1 (mutant); [3]): 10 nM
46 | O=C(NCCc1cccnc1)c1ccc2c(c1)N=C(c1ccc(F)cc1)c1ccccc1S2 [drawing 1033] |  |  | 25.1 | 119 | 
47 | CCN(CCNC(=O)c1ccc2c(c1)N=C(c1cccc(Cl)c1)c1ccccc1S2)c1ccccc1 [drawing 713] |  |  |  | 97 | IC50 (CB1 (mutant); [3]): 7.94 nM
48 | CCCCNC(=O)c1ccc2c(c1)N=C(c1ccccc1F)c1ccccc1S2 [drawing 1129] |  |  | 39.8 | 96 | 
49 | O=C(NCc1ccc(F)cc1)c1ccc2c(c1)N=C(c1ccc(Cl)cc1)c1ccccc1S2 [drawing 589] |  |  | 3.16 | 106 | 
50 | CC(CNC(=O)c1ccc2c(c1)N=C(c1cccc(Cl)c1)c1cc(F)ccc1S2)c1ccccc1 (stereo not shown) [drawing 879] |  |  | 15.8 | 113 | 
51 | O=C(NCc1ccc(F)cc1)c1ccc2c(c1)N=C(c1ccc(Cl)cc1)c1ccccc1[S+]2[O-] (stereo not shown) [drawing 1125] |  |  | 39.8 | 98 | 
52 | CCCC1=Nc2cc(C(=O)NCc3ccc4c(c3)OCO4)ccc2Sc2ccc(C)cc21 |  |  | 1580 | 77 | 
53 | O=C(NCc1ccccc1Br)c1ccc2c(c1)N=C(c1ccccc1)c1ccccc1S2 [drawing 700] |  |  | 79.4 | 83 | 
54 | Cc1ccc(CNC(=O)c2ccc3c(c2)N=C(c2ccc(F)cc2)c2ccccc2S3)o1 [drawing 577] |  |  | 3.16 | 65 | 
55 | Cc1ccsc1C1=Nc2cc(C(=O)NCc3cccs3)ccc2Sc2ccccc21 [drawing 685] |  |  | 6.31 | 114 | 
56 | CCCCNC(=O)c1ccc2c(c1)N=C(C#C[Si](C)(C)C)c1ccccc1S2 |  |  | 631 | 64 | 
57 | O=C(NN1CCCCC1)c1ccc2c(c1)N=C(c1ccccc1)c1ccccc1S2 [drawing 897] |  |  | 15.8 | 115 | 
58 | O=C(NC1CCCC1)c1ccc2c(c1)N=C(c1cccc(F)c1)c1ccccc1S2 [drawing 742] |  |  | 79.4 | 100 | 
59 | CC(CNC(=O)c1ccc2c(c1)N=C(c1cccc(Cl)c1)c1ccccc1S2)c1ccccc1 (stereo not shown) [drawing 587] |  |  | 3.16 | 112 | 
60 | O=C(NCc1cccnc1)c1ccc2c(c1)N=C(c1ccc(Cl)c(Cl)c1)c1ccccc1S2 [drawing 687] |  |  |  |  | pIC50 (CB1 (mutant); Appendix A, receptor form (mutant or wild-type) not stated): 8.2; % Inhibition (CB1 (mutant); [2]): 114%
61 | CCCC1=Nc2cc(C(=O)NCCN(C)C3CCCCC3)ccc2Sc2ccccc21 |  |  | 2000 | 123 | 
62 | CC(C)CNC(=O)c1ccc2c(c1)N=C(c1ccc(Cl)c(Cl)c1)c1ccccc1S2 [drawing 643] |  |  | 5.01 | 108 | 
63 | O=C(NCc1cccc(Cl)c1)c1ccc2c(c1)N=C(c1ccc(Cl)cc1)c1ccccc1S2 [drawing 579] |  |  | 3.16 | 112 | 
64 | CCCCNC(=O)c1ccc2c(c1)N=C(c1ccc(F)cn1)c1ccccc1S2 [drawing 709] |  |  | 7.94 | 101 | 
65 | O=C(NCCCC(F)(F)F)c1ccc2c(c1)N=C(c1ccc(Cl)s1)c1ccccc1S2 [drawing 559] |  |  | 2.51 | 103 | 
66 | O=C(c1ccc2c(c1)N=C(c1ccc(Cl)cc1)c1ccccc1S2)N1CCCCC1 |  |  |  | 95 | IC50 (CB1 (mutant); [3]): 31.6 nM
